According to patent US20230099344A1, “COMPOUNDS AND METHODS FOR THE TARGETED DEGRADATION OF IRAK-4” (Arvinas Operations, Inc., priority 2021, published 2023):
pIC50: −log10 of the molar value.

Key:
Format in all cases: cell-based
[1] = tested on: IL6; test: R848 stimulated IL6 inhibition assay in PBMC; conditions: PBMC, human PBMCs, R848 stimulation, compound overnight, IL6 by MSD after 24 hrs; for Dmax: Homo sapiens, 24 h, read-out: R848 stim IL6 inhibition Dmax; for pIC50: read-out: R848 stim IL6 inhibition IC50
Method in brief: (§1)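 Read-out: MSD quantification of IL6 or IL8 in media collected 24 hrs after stimulation. Human PBMCs (2.0×10^6 cells/mL) received compound overnight before stimulant dosing at an EC50 concentration determined per donor.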

[2] = biological target: T1, IRAK-4 (Homo sapiens, UniProt Q9NWZ3); test: IRAK-4 ELISA, PBMC degradation; set-up: endogenous in cells; host or cells: PBMC; conditions: treated overnight
T1 sequence (Q9NWZ3 1-460): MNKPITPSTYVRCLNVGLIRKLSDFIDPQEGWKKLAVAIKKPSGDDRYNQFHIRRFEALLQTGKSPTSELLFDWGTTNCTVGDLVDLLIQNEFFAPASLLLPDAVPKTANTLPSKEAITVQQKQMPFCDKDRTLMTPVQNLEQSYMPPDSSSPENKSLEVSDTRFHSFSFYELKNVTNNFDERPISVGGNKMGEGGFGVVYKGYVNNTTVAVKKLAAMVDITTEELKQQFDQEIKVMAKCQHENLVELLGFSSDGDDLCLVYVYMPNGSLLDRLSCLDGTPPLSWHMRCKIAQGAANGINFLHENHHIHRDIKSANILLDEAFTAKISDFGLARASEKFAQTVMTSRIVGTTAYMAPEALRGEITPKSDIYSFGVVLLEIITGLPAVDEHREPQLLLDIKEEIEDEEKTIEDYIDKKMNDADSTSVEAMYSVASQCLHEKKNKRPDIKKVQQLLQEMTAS
Method in brief: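 Overnight compound treatment, started on the day of plating, of OCI-Ly10 (1×10^6/ml) and PBMC (2×10^6/ml) cultures. Lysates are collected and IRAK-4 content is read by sandwich ELISA.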

[3] = tested on: IL6; test: LPS stimulated IL6 inhibition assay in PBMC; conditions: Homo sapiens, PBMC, 24 h, human PBMCs, LPS stimulation, compound overnight, IL6 by MSD after 24 hrs; for Dmax: read-out: LPS Stim IL6 inhibition Dmax; for pIC50: read-out: LPS stim IL6 inhibition IC50
Method in brief: as §1

Compound | pIC50 [1] | DC50 [2] | Dmax [2] | PBMC DC90 [2] | pIC50 [3] | Dmax [1] | Dmax [3]
O=C1CC[C@H](N2C(=O)c3ccc(N4CC(F)(CN5CCC(n6cc7cc(NC(=O)c8cnn9cccnc89)c(OCC8CC8)cc7n6)CC5)C4)cc3C2=O)C(=O)N1 [Example 254] | 7.30 to 8.00 | 1 to 5 nM | ≥ 90% | A (A represents a DC90 value <10.0 nM) | 7.00 to 7.30 | ≥ 90% | < 70%
O=C1CCC(N2C(=O)c3ccc(N4CC(F)(CN5CCC(n6cc7cc(NC(=O)c8cnn9cc(Cl)cnc89)c(OCC8CC8)cc7n6)CC5)C4)cc3C2=O)C(=O)N1 (stereo not drawn) [Example 255] | 7.00 to 7.30 | ≥ 10 nM | ≥ 90% | D (D represents a DC90 value ≥50 nM) | 7.00 to 7.30 | ≥ 90% | 70 to 80%
CC(C)(C1CN(c2ccc3c(c2)C(=O)N(C2CCC(=O)NC2=O)C3=O)C1)N1CCC(n2cc3cc(NC(=O)c4cnn5cccnc45)c(OCC4CC4)cc3n2)CC1 (stereo not drawn) [Example 256] | 7.30 to 8.00 | < 1 nM | ≥ 90% | A (A represents a DC90 value <10.0 nM) | 7.30 to 8.00 | 80 to 90% | < 70%
O=C1CCC(N2C(=O)c3ccc(N4CCC(O)(CN5CCC(n6cc7cc(NC(=O)c8cnn9cccnc89)c(OCC8CC8)cc7n6)CC5)CC4)cc3C2=O)C(=O)N1 (stereo not drawn) [Example 257] | 7.30 to 8.00 | 1 to 5 nM | ≥ 90% | A (A represents a DC90 value <10.0 nM) | 7.30 to 8.00 | ≥ 90% | 70 to 80%
O=C1CCC(N2Cc3cc(N4CCC(O)(CN5CCC(n6cc7cc(NC(=O)c8cnn9cccnc89)c(OCC8CC8)cc7n6)CC5)CC4)ccc3C2=O)C(=O)N1 (stereo not drawn) [Example 258] | 7.30 to 8.00 | < 1 nM | 80 to 90% | A (A represents a DC90 value <10.0 nM) | > 8.00 | ≥ 90% | 70 to 80%
O=C1CCC(N2C(=O)c3ccc(N4CCC5(CC4)CC(CN4CCC(n6cc7cc(NC(=O)c8cnn9cccnc89)c(OCC8CC8)cc7n6)CC4)C5)cc3C2=O)C(=O)N1 (stereo not drawn) [Example 261] | 7.00 to 7.30 | 1 to 5 nM | ≥ 90% | A (A represents a DC90 value <10.0 nM) | 7.30 to 8.00 | 80 to 90% | 80 to 90%
O=C1CCC(N2C(=O)c3ccc(N4CC(F)(CN5CCC(n6cc7cc(NC(=O)c8cnn9cccnc89)c(OCC8CC8)cc7n6)CC5)C4)c(F)c3C2=O)C(=O)N1 (stereo not drawn) [Example 262] | 7.30 to 8.00 | 1 to 5 nM | 70 to 80% | A (A represents a DC90 value <10.0 nM) | 7.00 to 7.30 | ≥ 90% | < 70%
CN1CC(Oc2cc3nn(C4CCN(CC5(F)CN(c6ccc7c(c6)C(=O)N(C6CCC(=O)NC6=O)C7=O)C5)CC4)cc3cc2NC(=O)c2cnn3cccnc23)C1 (stereo not drawn) [Example 263] | 7.30 to 8.00 | ≥ 10 nM | ≥ 90% | A (A represents a DC90 value <10.0 nM) | > 8.00 | ≥ 90% | < 70%
O=C1CCC(N2Cc3c(F)cc(N4CC(F)(CN5CCC(n6cc7cc(NC(=O)c8cnn9cccnc89)c(OCC8CC8)cc7n6)CC5)C4)cc3C2=O)C(=O)N1 (stereo not drawn) [Example 268, N-[6-(cyclopropylmethoxy)-2-[1-({1-[2-(2,6-dioxopiperidin-3-yl)-7-fluoro-3-oxo-2,3-dihydro-1H-isoindol-5-yl]-3-fluoroazetidin-3-yl}methyl)piperidin-4-yl]-2H-indazol-5-yl]pyrazolo[1,5-a]pyrimidine-3-carboxamide] | 7.30 to 8.00 | < 1 nM | ≥ 90% | A (A represents a DC90 value <10.0 nM) | 7.30 to 8.00 | ≥ 90% | 70 to 80%
O=C1CCC(N2Cc3cc(F)c(N4CC(F)(CN5CCC(n6cc7cc(NC(=O)c8cnn9cccnc89)c(OCC8CC8)cc7n6)CC5)C4)cc3C2=O)C(=O)N1 (stereo not drawn) [Example 269, N-[6-(cyclopropylmethoxy)-2-[1-({1-[2-(2,6-dioxopiperidin-3-yl)-6-fluoro-3-oxo-2,3-dihydro-1H-isoindol-5-yl]-3-fluoroazetidin-3-yl}methyl)piperidin-4-yl]-2H-indazol-5-yl]pyrazolo[1,5-a]pyrimidine-3-carboxamide] | 7.30 to 8.00 | 1 to 5 nM | 80 to 90% | A (A represents a DC90 value <10.0 nM) | 7.30 to 8.00 | ≥ 90% | 80 to 90%
CC(C)Oc1cc2c(cc1NC(=O)c1cnn3cccnc13)CN(C1CCN(CC3CCN(c4ccc(F)c(C(=O)NC5CCC(=O)NC5=O)c4)CC3)CC1)C2=O (stereo not drawn) [Example 303] | 7.30 to 8.00 | 5 to 10 nM | 80 to 90% | C (C represents a DC90 value ≥25.0 nM and <50 nM) | 7.30 to 8.00 | ≥ 90% | 70 to 80%
O=C1CCC(NC(=O)c2ccc(N3CCC(CN4CCC(N5Cc6cc(NC(=O)c7cnn8cccnc78)c(OCC(F)F)cc6C5=O)CC4)CC3)cc2F)C(=O)N1 (stereo not drawn) [Example 305] | 7.00 to 7.30 | 5 to 10 nM | 80 to 90% | C (C represents a DC90 value ≥25.0 nM and <50 nM) | 7.30 to 8.00 | < 70% | < 70%
CC(C)Oc1nc2c(cc1NC(=O)c1cnn3cccnc13)CN(C1CCN(CC3CCN(c4ccc(C(=O)NC5CCC(=O)NC5=O)c(F)c4)CC3)CC1)C2=O (stereo not drawn) [Example 309] | 7.30 to 8.00 | 1 to 5 nM | ≥ 90% | B (B represents a DC90 value ≥10.0 nM and <25.0 nM) | 7.30 to 8.00 | 80 to 90% | < 70%
Cn1c(=O)n(C2CCC(=O)NC2=O)c2cccc(N3CC(N(C)[C@H]4CC[C@H](n5cc6cc(NC(=O)c7cnn8cccnc78)c(OCC7CC7)cc6n5)CC4)C3)c21 (stereo partly drawn) [Example 346] | 7.30 to 8.00 | 1 to 5 nM | 80 to 90% | B (B represents a DC90 value ≥10.0 nM and <25.0 nM) | > 8.00 | ≥ 90% | 80 to 90%
O=C1CCC(N2C(=O)c3ccc(N4CCC5(CC4)CN([C@H]4CC[C@H](n6cc7cc(NC(=O)c8cnn9cccnc89)c(OCC8CC8)cc7n6)CC4)C5)cc3C2=O)C(=O)N1 (stereo partly drawn) [Example 353] | 7.30 to 8.00 | 1 to 5 nM | 80 to 90% | B (B represents a DC90 value ≥10.0 nM and <25.0 nM) | 7.30 to 8.00 | ≥ 90% | 70 to 80%

Continued, in another order:

pIC50 [1] | DC50 [2] | Dmax [2] | PBMC DC90 [2] | pIC50 [3] | Compound | Dmax [1] | Dmax [3]
≤ 7.00 | ≥ 10 nM | 70 to 80% | D (D represents a DC90 value ≥50 nM) | ≤ 7.00 | O=C1CCC(NC(=O)c2cc(N3CC(CN4CCC(n5cc6cc(NC(=O)c7cnn8cccnc78)c(OCC7CC7)cc6n5)CC4)C3)ccc2F)C(=O)N1 (stereo not drawn) [Example 306] | ≥ 90% | 70 to 80%
≤ 7.00 | ≥ 10 nM |  | D (D represents a DC90 value ≥50 nM) | ≤ 7.00 | CC(C)Oc1cc2nn(C3CCN(CC4CN(c5ccc(F)c(C(=O)NC6CCC(=O)NC6=O)c5)C4)CC3)cc2cc1NC(=O)c1cnn2cccnc12 (stereo not drawn) [Example 307] | 80 to 90% | 
7.00 to 7.30 | 1 to 5 nM | ≥ 90% | A (A represents a DC90 value <10.0 nM) | ≤ 7.00 | O=C1CCC(NC(=O)c2ccc(N3CCC(CN4CCC(N5Cc6cc(NC(=O)c7cnn8cccnc78)c(N7CCC(N8CCC8)CC7)cc6C5=O)CC4)CC3)cc2F)C(=O)N1 (stereo not drawn) [Example 310] | ≥ 90% | 70 to 80%
7.30 to 8.00 | 5 to 10 nM | 80 to 90% | D (D represents a DC90 value ≥50 nM) | ≤ 7.00 | CC(C)Oc1cc2c(cc1NC(=O)c1cnn3cccnc13)CN(C1CCN(C(C)(C)C3CN(c4ccc(F)c(C(=O)NC5CCC(=O)NC5=O)c4)C3)CC1)C2=O (stereo not drawn) [Example 311] | ≥ 90% | 70 to 80%
> 8.00 | 1 to 5 nM | ≥ 90% | A (A represents a DC90 value <10.0 nM) | 7.30 to 8.00 | CC(C)Oc1cc2c(cc1NC(=O)c1cnn3cccnc13)CN(C1CCN(C(C)(C)C3CN(c4ccc(C(=O)NC5CCC(=O)NC5=O)c(F)c4)C3)CC1)C2=O (stereo not drawn) [Example 312] | ≥ 90% | ≥ 90%
